This is an account of results in ChEMBL document CHEMBL1154554, “Ganomycins A and B, new antimicrobial farnesyl hydroquinones from the basidiomycete Ganoderma pfeifferi” (2000).

Values after ≈ are worked out from the molar mass of the structure shown. Active and inactive are the calls of the source. The calls are words filed in the database; no cut-off is given here.

One test has as its system Serratia marcescens. In words: Antibacterial activity against sSerratia marcescens SBUG 9 at 100 ug/disk after 18 hrs by agar diffusion method. Particulars: for zone of inhibition at 100 µg/disc: read-out: IZ. The format is functional. (In general: A growth-free zone around the sample is the usual read-out of agar diffusion tests.)
For a further test, the system named is Proteus mirabilis. In words: Antibacterial activity against Proteus mirabilis SBUG 47 at 100 ug/disk after 18 hrs by agar diffusion method. The format is functional. Particulars: for zone of inhibition at 100 µg/disc: read-out: IZ.
For test [1], the system named is Micrococcus luteus. As to the kind of experiment: Antibacterial activity against Micrococcus flavus SBUG 16 at 100 ug/disk after 48 hrs by agar diffusion method. It counts as functional. Particulars: for zone of inhibition at 100 µg/disc: read-out: IZ.
Test [2] deals with Staphylococcus aureus. As to the kind of experiment: Antibacterial activity against Staphylococcus aureus ATCC 29213 at 100 ug/disk after 18 hrs by agar diffusion method. It counts as functional. Particulars: for zone of inhibition at 100 µg/disc: ATCC 29213, 18 h, read-out: IZ.
For another test, the system named is Bacillus subtilis. In words: Antibacterial activity against Bacillus subtilis SBUG 14 at 100 ug/disk after 18 hrs by agar diffusion method. It counts as functional. Conditions: for zone of inhibition at 100 µg/disc: read-out: IZ.
Test [3] has as its system Staphylococcus aureus. In words: Antibacterial activity against Staphylococcus aureus SG511 at 100 ug/disk after 18 hrs by agar diffusion method. It counts as functional. Particulars: for zone of inhibition at 100 µg/disc: read-out: IZ.
The next test deals with Pseudomonas aeruginosa. In words: Antibacterial activity against Pseudomonas aeruginosa ATCC 15442 at 100 ug/disk after 18 hrs by agar diffusion method. The format is functional, organism-based.
The subject of test [4] is Staphylococcus aureus. In words: Antibacterial activity against Staphylococcus aureus ATCC 25923 at 100 ug/disk after 18 hrs by agar diffusion method. Conditions: for zone of inhibition at 100 µg/disc: ATCC 25923, 18 h, read-out: IZ. It counts as functional.
For a further test, the system named is Escherichia coli. In words: Antibacterial activity against sEscherichia coli SBUG 13 at 100 ug/disk after 18 hrs by agar diffusion method. It counts as functional. Particulars: for zone of inhibition at 100 µg/disc: read-out: IZ.
The test system of test [5] is Staphylococcus aureus. As to the kind of experiment: Antibacterial activity against Staphylococcus aureus ATCC 6538 at 100 ug/disk after 18 hrs by agar diffusion method. It counts as functional. Particulars: for zone of inhibition at 100 µg/disc: ATCC 6538, 18 h, read-out: IZ.
Test [6] relates to Micrococcus luteus. In words: Antibacterial activity against Micrococcus flavus SBUG 16 after 18 hrs by broth microdilution method. The format is functional. On the technique in general: In broth dilution the organism is exposed to a series of concentrations in liquid medium.
For test [7], the system named is Staphylococcus aureus. In words: Antibacterial activity against Staphylococcus aureus after 18 hrs by broth microdilution method. The format is functional.
The next test deals with Candida maltosa. In words: […] activity against Candida maltosa 100 ug/disk after 18 hrs by agar diffusion method. It counts as functional, organism-based.
Another test has as its system Candida albicans. In words: […] activity against Candida albicans at 100 ug/disk after 18 hrs by agar diffusion method. It counts as functional, organism-based.

On to `COC1=C(OC)C(=O)C(C/C=C(\C)CC/C=C(\C)CC/C=C(\C)CC/C=C(\C)CC/C=C(\C)CC/C=C(\C)CC/C=C(\C)CC/C=C(\C)CC/C=C(\C)CCC=C(C)C)=C(C)C1=O`, for which the result in the test on Serratia marcescens, in the test on Proteus mirabilis, with Micrococcus luteus [1], in the test on Staphylococcus aureus [2], in the test with Bacillus subtilis and with Staphylococcus aureus [3] was inactive. Besides, the result in the test on Pseudomonas aeruginosa, with Staphylococcus aureus [4], in the test on Escherichia coli and in the test on Staphylococcus aureus [5] was inactive.
For the compound `CC1(C)S[C@@H]2[C@H](NC(=O)[C@H](N)c3ccccc3)C(=O)N2[C@H]1C(=O)O` [AMPICILLIN], the MIC (usually the least concentration at which growth counts as inhibited) in the test on Micrococcus luteus [6] was determined as 0.25 µg/mL (≈ 0.715 µM); with Staphylococcus aureus [7] it was 0.05 µg/mL (≈ 0.143 µM).
In the case of `C/C(=C\CC/C(C)=C/CC/C(=C/Cc1cc(O)ccc1O)C(=O)O)CO` [GANOMYCIN A], the outcome in the test with Candida maltosa, in the test on Candida albicans and with Pseudomonas aeruginosa was inactive. Also, the zone of inhibition at 100 µg/disc in the test with Serratia marcescens was determined as 15 mm; in the test with Proteus mirabilis, 15 mm; in the test on Micrococcus luteus [1], 25 mm; with Staphylococcus aureus [2], 16 mm; with Bacillus subtilis, 16 mm; in the test with Staphylococcus aureus [3], 24 mm. For the same compound, the zone of inhibition at 100 µg/disc with Staphylococcus aureus [4] worked out at 15 mm; in the test with Escherichia coli it was 4 mm; with Staphylococcus aureus [5] it was 19 mm. The MIC in the test with Micrococcus luteus [6] came to 2.5 µg/mL (≈ 6.94 µM); against Staphylococcus aureus [7] it was 25 µg/mL (≈ 69.4 µM).
As to `CC(C)=CCC/C(C)=C/CC/C(=C/Cc1cc(O)ccc1O)C(=O)O` [GANOMYCIN B], the result with Candida maltosa, with Candida albicans and in the test on Pseudomonas aeruginosa was inactive. The zone of inhibition at 100 µg/disc was determined as 16 mm in the test with Serratia marcescens; 15 mm with Proteus mirabilis; 26 mm in the test with Micrococcus luteus [1]; 18 mm in the test on Staphylococcus aureus [2]; 15 mm in the test on Bacillus subtilis; 24 mm with Staphylococcus aureus [3]. Besides, the zone of inhibition at 100 µg/disc in the test on Staphylococcus aureus [4] was 17 mm; in the test on Escherichia coli, 5 mm; with Staphylococcus aureus [5], 20 mm. The MIC stood at 2.5 µg/mL (≈ 7.26 µM) in the test on Micrococcus luteus [6] and 25 µg/mL (≈ 72.6 µM) against Staphylococcus aureus [7].
